The values below come from US20250222068A1, “COMPOSITION FOR PREVENTING OR TREATING LUPUS COMPRISING RECOMBINANT STABILIZED GALECTIN-9 PROTEIN” (GBIOLOGICS INC., priority 2022, published 2025).

A short description of the data set: Body weight assessment in an in vivo model of systemic lupus erythematosus. The conditions noted are these: mycophenolate 60 mg/kg PO once daily, 9 weeks, MRL/FAS^lpr mice, FIG. 1.

On to `COc1c(C)c2c(c(O)c1C/C=C(\C)CCC(=O)O)C(=O)OC2` [Mycophenolate, mycophenolate], for which the “changes in body weight” value is “no statistically significant changes in body weight”.
